The subject of one series is P. falciparum Dd2. Kind of series: Inhibition of in vitro P. falciparum culture, [3H]-hypoxanthine uptake, Dd2. Particulars: Plasmodium falciparum, DD2, Erythrocyte, [3H]-hypoxanthine uptake by parasite infected erythrocytes; read-out: Dd2 IC50. The format is cell-based. In a few lines:
(§1)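 Parasite growth inhibition measured as relative reduction of [3H]-hypoxanthine uptake in in vitro cultures. Values from non-linear regression fit, using relative growth velocity in place of product-formation rate.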

Another series relates to P. falciparum HB3. The experiment in a line: Inhibition of in vitro P. falciparum culture, [3H]-hypoxanthine uptake, HB3. Particulars: Plasmodium falciparum, HB3, Erythrocyte; [3H]-hypoxanthine uptake by parasite infected erythrocytes; read-out: HB3 IC50. The format is cell-based. How it is done: (§2) P. falciparum strains D10, 3D7, HB3, and Dd2 were obtained from the Malaria Research and Reference Reagent Resource Center (Manassas, Va.). The parasite strains were maintained in vitro by method of Trager and Jensen. The inhibition of P. falciparum growth in the presence of drug was assessed by the relative reduction of [^3H]-hypoxanthine uptake as previously described. Inhibition data were fitted to Equation 1 using non-linear regression analysis except that the relative velocity of parasite growth was substituted for the rate of product formation.

The nature of series [1]: Renal Proximal Tubule Epithelial Cell Toxicity Screen. The format is cell-based. How it is done: The Renal Proximal Tubule Epithelial Cell Toxicity Screen is designed to determine whether compound mixtures, breakouts or single compounds are toxic to normal renal epithelial cells. […] Basically, the screen consists of plating renal epithelial cells, exposing them to the desired compound(s) for 4 days and measuring cell viability using the Alamar Blue reagent.
Harvested Kidney Epithelial cells were diluted in REGM to 1.5×10^4 cells/mL. […] NOTE: One plate, the T=0 plate required that 20-30 wells be seeded, and all the other plates had 96 wells seeded. Plates were incubated in 37° C./5% CO2 incubator for 24 hours.
Alamar Blue solution (25 μL/well) was added to the T=0 plate and mixed. The plate was incubated in 37° C./5% CO2 incubator for 4 hours, mixed and then the fluorescence was measured. 10% Tween 20 stock (10 μL) was added into rows A-D in column 1 (positive control). DMSO (0.5 μL) was added into column 2 (negative control). Compounds were placed into designated wells for desired testing as follows:
Plates were mixed on the shaker, and then incubated in 37° C./5% CO2 incubator for 96 hours. Day 6:
Alamar Blue solution (25 μL/well) was added to the plates containing the compounds and mixed. Plates were incubated in 37° C./5% CO2 incubator for 4 hours, mixed and the fluorescence was measured.

Another series has as its system P. falciparum D10. Kind of series: Inhibition of in vitro P. falciparum culture, [3H]-hypoxanthine uptake, D10. Particulars: Plasmodium falciparum, D10, Erythrocyte; [3H]-hypoxanthine uptake by parasite infected erythrocytes; read-out: D10 IC50. Format: cell-based. As for the experimental part: as §2
Series [2] concerns the target T1, pfDHODH (Plasmodium falciparum (isolate 3D7), UniProt Q08210). Kind of series: pfDHODH activity with FeCy as electron acceptor. The following applies: read-out: % Inhibition of Product Formation Rate with 50 μM Inhibitor, FeCy.
Experimental: Inhibitors of DHODH, as classified by the chromogen reduction assay, were also evaluated for activity using FeCy as an electron acceptor. A final concentration of 5-50 nM DHODH, 200 μM L-DHO and 100 μM FeCy in Buffer C was used in this assay. Both the reduction of FeCy and the formation of orotate was monitored at 420 nm (ε420=1 mM^−1 cm^−1) and 290 nm (ε280=2 mM^−1 cm^−1), respectively, noting that two molecules of FeCy are reduced for one molecule of L-DHO. As with the previous assays, the reaction was performed at 25° C. and initiated with the addition of enzyme.
The target of another series is scDHODH (Saccharomyces cerevisiae (strain ATCC 204508 / S288c) (Baker's yeast), UniProt P28272). Kind of series: DCIP assay with fumarate, scDHODH. Format: biochemical. The following applies: 115 μM fumarate in lieu of CoQD.
Chain of scDHODH (P28272 whole entry): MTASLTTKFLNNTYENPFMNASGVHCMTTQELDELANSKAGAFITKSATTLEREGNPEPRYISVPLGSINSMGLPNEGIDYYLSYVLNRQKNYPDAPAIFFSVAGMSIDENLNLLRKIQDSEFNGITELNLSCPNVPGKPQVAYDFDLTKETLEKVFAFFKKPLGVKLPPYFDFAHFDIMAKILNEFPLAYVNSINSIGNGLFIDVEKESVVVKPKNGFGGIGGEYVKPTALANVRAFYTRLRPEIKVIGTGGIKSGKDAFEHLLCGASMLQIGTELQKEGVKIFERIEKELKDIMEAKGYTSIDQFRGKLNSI
Series [3] is described as follows: Normal Human Dermal Fibroblast Toxicity Screen. The format is cell-based. Particulars: human, normal human dermal fibroblasts; four days exposure, Alamar Blue; read-out: Dermal Fibroblast LC50. How it is done:
The Normal Human Dermal Fibroblast Toxicity Screen Protocol is designed to determine whether compound mixtures, breakouts or single compounds are toxic to normal human dermal fibroblasts. The screen involves plating the dermal fibroblasts and then exposing them to the compounds for four days, then cell viability is measured using Alamar Blue reagent.
Harvested Dermal Fibroblast cells were diluted in Growth Media to 0.25 to 0.3×10^5 cells/mL. […] NOTE: One plate, the T=0 plate required that 20-30 wells be seeded and all the other plates had 96 wells seeded. Plates were incubated in 37° C./5% CO2 incubator for 24 hours.
Alamar Blue solution (25 μL/well) was added to the T=0 plate and the plate was agitated. The plate in 37° C./5% CO2 incubator was incubated for 3 hours, agitated the and the fluorescence was measured. 10% Tween 20 stock (10 μL) was added into rows A-D in column 1 (positive control). DMSO (0.5 μL) was added into column 2 (negative control). Compounds were placed into designated wells for desired testing as follows:
Plates were mixed on the shaker, then incubated in 37° C./5% CO2 incubator for 96 hours.
Alamar Blue solution (25 μL/well) was added to the plates containing the compounds, and the plates were agitated. The plates were incubated in 37° C./5% CO2 incubator for 3 hours, agitated and then the fluorescence was measured.
(In general: Alamar Blue is a resazurin reagent that responds to reducing activity.)

The next series has as its target pbDHODH (Plasmodium berghei, UniProt A0A509AEH5). The experiment in a line: DCIP assay, pbDHODH. Format: biochemical, P. berghei. The following applies: 200 μM L-DHO, 18 μM CoQD, 100 μM DCIP, 20 nM enzyme. The source says: (§3) Type 2 DHODH activity was monitored with either the direct assay measuring the formation of orotate or via a chromogen reduction assay using DCIP. Although the extinction coefficient and absorption wavelength are preferable for the chromogen reduction assay, the inorganic electron acceptor DCIP can be utilized by DHODH as the final electron acceptor in lieu of CoQn when the endogenous substrate is at a low concentration. As such, the direct assay was used to measure the binding affinity of pfDHODH to CoQD and L-DHO. The enzymatic reaction was performed by varying the L-DHO concentration (1-400 μM) or CoQD concentration (1-200 μM) while keeping the other substrate constant and in excess. The formation of orotate was measured continuously at 296 nm (ε296=4.3 mM^−1 cm^−1). Inhibition of DHODH by small molecules was evaluated using the chromogen based assay with a final substrate concentration of 200 μM L-DHO, 18 μM CoQD, and 100 μM DCIP, unless otherwise noted. The reduction of DCIP was monitored at 600 nm (ε600=18.8 mM^−1 cm^−1).
(§4) Substrate specificity and enzyme inhibition data was analyzed with GraphPad Prism Version 4 for Windows (GraphPad Software). Kinetic constants were calculated by non-linear regression fitting of the data to the Michaelis-Menten equation [36]. IC50 values were determined by non-linear regression fitting of the data to Equation 1: […]

Series [4] addresses T1, pfDHODH. Kind of series: DHODH chromogen reduction (DCIP) assay, pfDHODH. The format is biochemical, P. falciparum. The following applies: 200 μM L-DHO.
In another series the target is pvDHODH (Plasmodium vivax, UniProt A5K1N1). Kind of series: DCIP assay, pvDHODH. Format: biochemical, P. vivax. Particulars: 200 μM L-DHO, 18 μM CoQD, 100 μM DCIP, 20 nM enzyme.
Chain of pvDHODH (A5K1N1 1-572): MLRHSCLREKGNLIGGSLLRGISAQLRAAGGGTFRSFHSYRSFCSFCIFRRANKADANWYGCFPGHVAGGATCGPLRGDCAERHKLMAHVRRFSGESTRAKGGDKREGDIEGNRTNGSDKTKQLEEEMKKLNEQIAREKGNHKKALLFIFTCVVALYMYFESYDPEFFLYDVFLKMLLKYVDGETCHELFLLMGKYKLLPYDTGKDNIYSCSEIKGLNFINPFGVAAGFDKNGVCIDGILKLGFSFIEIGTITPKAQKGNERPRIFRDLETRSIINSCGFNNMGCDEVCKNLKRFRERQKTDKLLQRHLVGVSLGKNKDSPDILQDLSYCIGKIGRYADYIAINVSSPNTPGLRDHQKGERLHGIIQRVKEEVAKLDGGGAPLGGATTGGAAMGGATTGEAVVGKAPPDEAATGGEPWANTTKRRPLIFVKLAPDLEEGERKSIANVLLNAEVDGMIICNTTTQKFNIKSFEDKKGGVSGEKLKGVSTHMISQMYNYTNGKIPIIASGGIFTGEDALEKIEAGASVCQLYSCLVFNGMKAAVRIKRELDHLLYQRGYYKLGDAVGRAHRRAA
Text: as §3, §4

The target in the next series is hsDHODH (Homo sapiens (Human), UniProt Q02127). The experiment in a line: DCIP assay, hsDHODH. The format is biochemical. The following applies: DCIP assay; 200 μM L-DHO, 18 μM CoQD, 100 μM DCIP, 20 nM enzyme; read-out: hsDHODH IC50.
Chain of hsDHODH (Q02127 29-395 limits assumed): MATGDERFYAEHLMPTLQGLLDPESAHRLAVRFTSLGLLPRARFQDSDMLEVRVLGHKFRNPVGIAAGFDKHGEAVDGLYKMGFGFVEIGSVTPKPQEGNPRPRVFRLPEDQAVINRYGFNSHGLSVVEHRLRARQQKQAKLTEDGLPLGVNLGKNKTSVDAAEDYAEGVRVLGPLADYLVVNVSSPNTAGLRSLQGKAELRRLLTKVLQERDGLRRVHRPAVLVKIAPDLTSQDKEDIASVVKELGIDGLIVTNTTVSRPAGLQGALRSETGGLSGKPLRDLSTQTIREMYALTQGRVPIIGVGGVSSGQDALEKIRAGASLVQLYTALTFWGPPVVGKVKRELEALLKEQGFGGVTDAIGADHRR
Series [5] concerns P. falciparum D10-scDHODH. Kind of series: Inhibition of transgenic D10-scDHODH parasites, [3H]-hypoxanthine uptake. Format: cell-based. As for the experimental part: as §2
Transgenic parasites expressing scDHODH were generated as described by Painter et al. except that full length scDHODH was cloned directly into the pGem3Z vector without a GFP tag. The resultant plasmid was transfected into ring stages of P. falciparum D10 by electroporation and maintained in culture using standard methods under the selection of WR99210.

A further series deals with P. falciparum 3D7. Kind of series: Inhibition of in vitro P. falciparum culture, [3H]-hypoxanthine uptake, 3D7. The format is cell-based. Particulars: Plasmodium falciparum, 3D7, Erythrocyte; [3H]-hypoxanthine uptake by parasite infected erythrocytes; read-out: 3D7 IC50. The essentials: as §1

A value given as a limit tells only on which side of the number the result lay.

T1 sequence (Q08210 159-565 limits assumed): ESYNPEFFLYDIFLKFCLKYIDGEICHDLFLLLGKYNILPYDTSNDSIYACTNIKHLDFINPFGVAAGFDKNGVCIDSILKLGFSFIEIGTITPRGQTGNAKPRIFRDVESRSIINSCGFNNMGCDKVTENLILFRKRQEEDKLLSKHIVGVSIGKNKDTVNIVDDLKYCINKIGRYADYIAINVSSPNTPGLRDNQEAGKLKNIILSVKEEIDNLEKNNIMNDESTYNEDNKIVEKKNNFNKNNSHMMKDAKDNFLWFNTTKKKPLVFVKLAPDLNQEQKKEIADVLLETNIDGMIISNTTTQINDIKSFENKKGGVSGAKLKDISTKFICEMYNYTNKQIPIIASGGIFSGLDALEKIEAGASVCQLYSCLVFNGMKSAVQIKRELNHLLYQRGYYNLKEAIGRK
Chain of pbDHODH (A0A509AEH5 1-517): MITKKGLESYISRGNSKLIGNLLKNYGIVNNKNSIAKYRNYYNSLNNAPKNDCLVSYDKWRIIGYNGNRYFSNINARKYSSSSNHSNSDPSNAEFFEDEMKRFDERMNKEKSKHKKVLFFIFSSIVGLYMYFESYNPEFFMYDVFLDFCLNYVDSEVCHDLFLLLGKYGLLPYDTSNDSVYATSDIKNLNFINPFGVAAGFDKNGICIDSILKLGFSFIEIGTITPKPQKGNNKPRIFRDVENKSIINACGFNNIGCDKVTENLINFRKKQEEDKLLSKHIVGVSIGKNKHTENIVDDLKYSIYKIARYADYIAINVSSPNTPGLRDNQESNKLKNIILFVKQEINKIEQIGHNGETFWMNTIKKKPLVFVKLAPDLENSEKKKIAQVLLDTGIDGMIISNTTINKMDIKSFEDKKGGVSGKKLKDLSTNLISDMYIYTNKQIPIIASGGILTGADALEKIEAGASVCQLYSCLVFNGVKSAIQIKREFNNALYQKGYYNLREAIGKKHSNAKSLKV

`O=C(NC1CC1)c1ccc(N2CCSc3ccccc32)s1` [Compound 5, 5(2H-benzo[b][1,4]thiazin-4(3H)-yl)-N-cyclopropylthiophene-2-carboxamide]: the IC50 in the series on P. falciparum Dd2 is 620 nM; in the series on P. falciparum HB3, 910 nM; in the series with P. falciparum D10, 950 nM; against scDHODH, over 10000 nM; at pbDHODH, 380 ± 60 nM; at pfDHODH [4] (DCIP assay, 18 μM CoQD, 100 μM DCIP, 20 nM enzyme, read-out: pfDHODH IC50) it was 250 ± 30 nM. Moreover, the IC50 against pvDHODH is 280 ± 10 nM; on hsDHODH it was 7900 ± 400 nM; in [5] (Plasmodium falciparum, D10, read-out: D10-scDHODH IC50), over 10000 nM; in the series on P. falciparum 3D7, 890 nM. Besides, the CC50 at 96 h in [1] and in series [3] was over 62000 nM in each case. For the same compound, the inhibition at 50 µM on pfDHODH [2] was found to be 23%; on pfDHODH [4] (50 μM inhibitor, 100 μM CoQD, 60 μM DCIP, read-out: % Inhibition of Product Formation Rate with 50 μM Inhibitor, CoQD) it was 97%. Also, in series [5] (dose-effect curves, FIG. 5), the “efficacy against D10-scDHODH strain compared to D10 parent strain” value is “significantly reduced”.

Usually IC50 stands for the point on the concentration scale where inhibition reaches its midpoint. What is called inhibition is the percentage by which the read-out fell short of the control.

These data come from patent US8703811B2, “Small molecule inhibitors of Plasmodium falciparum dihydroorotate dehydrogenase” (Genzyme Corporation, priority 2008, dated 2014).
